In patent US7956069B2, “Compounds” (AstraZeneca AB, priority 2006, dated 2011):
pEC50: −log10 of the molar value.

target: T1, cloned human M4 receptor (Homo sapiens, UniProt P08173); experiment: hM4 receptor GTPγS binding; format: biochemical; conditions: CHO membranes, [35S]GTPγS binding
T1 construct: purchased Perkin-Elmer RBHM4M; host or cells: Chinese hamster ovary cells (CHO)
T1 sequence (P08173 1-479): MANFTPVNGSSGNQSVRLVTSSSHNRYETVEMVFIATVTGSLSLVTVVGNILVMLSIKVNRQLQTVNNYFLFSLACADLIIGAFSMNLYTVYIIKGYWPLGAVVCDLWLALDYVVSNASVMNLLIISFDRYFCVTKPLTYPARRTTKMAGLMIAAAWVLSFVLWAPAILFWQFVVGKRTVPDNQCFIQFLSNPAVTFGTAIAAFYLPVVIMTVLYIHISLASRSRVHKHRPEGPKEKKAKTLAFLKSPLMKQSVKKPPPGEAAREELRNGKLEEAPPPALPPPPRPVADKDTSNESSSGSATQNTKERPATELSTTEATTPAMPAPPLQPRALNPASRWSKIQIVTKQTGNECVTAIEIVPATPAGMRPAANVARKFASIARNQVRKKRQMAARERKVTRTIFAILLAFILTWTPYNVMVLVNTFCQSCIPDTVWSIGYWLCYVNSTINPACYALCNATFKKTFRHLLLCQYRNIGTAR
Procedure: HM4 Receptor GTPγS Binding
Membranes produced from Chinese hamster ovary cells (CHO) expressing the cloned human M4 receptor (human Muscarinic receptor subtype 4, gene bank access NM_000741), were obtained from Perkin-Elmer (RBHM4M). The membranes were thawed at 37° C., passed 3 times through a 23-gauge blunt-end needle, diluted in the GTPγS binding buffer (50 mM Hepes, 20 mM NaOH, 100 mM NaCl, 1 mM EDTA, 5 mM MgCl2, pH 7.4, 100 μM DTT). The EC50, IC50 and Emax of the compounds of the invention were evaluated from 10-point dose-response curves (three fold concentration range) done in 60 μl in 384-well non-specific binding surface plate (Corning). Ten microliters from the dose-response curves plate (5× concentration) were transferred to another 384 well plate containing the following: 10 μg of hM4 membranes, 500 μg of Flashblue beads (Perkin-Elmer) and GDP in a 25 μl volume. An additional 15 μl containing 3.3× (55000 dpm) of GTPγ^35S (0.4 nM final) were added to the wells resulting in a total well volume of 50 μl. Basal and maximal stimulated [^35S]GTPγS binding were determined in absence and presence of 30 μM of acetylcholine agonist. The membranes/beads mix were pre-incubated for 15 minutes at room temperature with 40 μM GDP prior to distribution in plates (20 μM final). The reversal of acetylcholine-induced stimulation (10 μM final) of [^35S]GTPγS binding was used to assay the antagonist properties (IC50) of the compounds. The plates were incubated for 60 minutes at room temperature with shaking, then centrifuged at 2000 rpm for 5 minutes. The radioactivity (cpm) were counted in a Trilux (Perkin-Elmer).
Values of EC50, IC50 and Emax were obtained using sigmoidal fits of a non-linear curve-fitting program (XLfit version 5.0.6 from ID Business Solutions Limited, Guildford, UK) of percent stimulated [^35S]GTPγS binding vs. log(molar ligand).
All EC50 and IC50 values are reported as arithmetic means±standard error of mean of ‘n’ independent experiments. […] The IC50 was the concentration of the compound of the invention at which 50% inhibition of acetylcholine [^35S]GTPγS binding stimulation has been observed.

Row | pEC50 | Structure (SMILES)
1 | < 4.52 | COc1ccccc1C(=O)N1CCC(N2CCC(N3C(=O)N[C@@H]4CCCC[C@H]43)CC2)CC1
2 | 5.89 | CC(C)OC(=O)N1CCC(N2CCC(N3C(=O)N[C@H]4CCCC[C@@H]43)CC2)CC1
3 | 5.35 | CC(C)OC(=O)N1CCC(N2CCC(N3C(=O)N[C@@H]4CCCC[C@@H]43)CC2)CC1
4 | < 4.52 | O=C(C1CC1)N1CCC(N2CCC(N3C(=O)N[C@@H]4CCCC[C@H]43)CC2)CC1
5 | < 4.52 | O=C1CCCN1CCC(=O)N1CCC(N2CCC(N3C(=O)N[C@@H]4CCCC[C@H]43)CC2)CC1
6 | < 4.52 | CN1C(=O)N(C2CCN(C3CCN(C(=O)C4CC4)CC3)CC2)[C@H]2CCCC[C@@H]21
7 | 5.38 | CC(C)OC(=O)N1CCC(N2CCC(N3C(=O)C[C@H]4CCCC[C@@H]43)CC2)CC1

Further lines, the molecule ahead of its results:

Row | Structure (SMILES) | pEC50
8 | CCOC(=O)N1CCC(N2CCC(N3C(=O)N[C@H]4CCCC[C@@H]43)CC2)CC1 | 6.48
9 | CCOC(=O)N1CC[C@H](N2CCC(N3C(=O)N[C@H]4CCCC[C@@H]43)CC2)C1 | 5.03
10 | O=C1CCCN1CCC(=O)N1CCC(N2CCC(N3C(=O)N[C@H]4CCCC[C@@H]43)CC2)CC1 | 5.29
11 | O=C(C1CCCC1)N1CCC(N2CCC(N3C(=O)N[C@H]4CCCC[C@@H]43)CC2)CC1 | < 4.52
12 | O=C(OCCF)N1CCC(N2CCC(N3C(=O)N[C@H]4CCCC[C@@H]43)CC2)CC1 | 5.96
